What is called inhibition is the change of the read-out against control, counted positive when it falls. A low value points to a weak effect. Usually IC50 stands for the concentration at which inhibition is half-maximal. A lower IC50 goes with inhibition by little substance.

These results are taken from ChEMBL document CHEMBL1131935, “Novel cytokine release inhibitors. Part IV: analogs of podocarpic acid” (Bioorg Med Chem Lett, 1999).

The species entered for the first experiment is Homo sapiens. Description: Compound tested for the inhibition of IL1-beta release stimulated with LPS in human monocytes was determined at a concentration of 1 uM. In kind it is functional.
In turn, `COC(=O)[C@@]1(C)CCC[C@]2(C)c3cc(O)ccc3CCC12` (stereo partly drawn) displayed an inhibition at 1 µM of 15%.
On the same count and under the same terms, as for `COC(=O)[C@@]1(C)CCC[C@]2(C)c3cc(O)c(O)cc3CCC12` (stereo partly drawn), the figure is 42%.
Same read-out and setting: as for `COC(=O)[C@@]1(C)CCC[C@]2(C)c3cc(O)c([N+](=O)[O-])cc3C=C[C@@H]12`, the figure is 5%; as for `COC(=O)[C@@]1(C)CCC[C@]2(C)c3cc(O)c(C(C)C)cc3C=C[C@@H]12`, 38%.

A further experiment is filed under the species Homo sapiens. Description: Inhibition of IL1-beta release stimulated with LPS in human monocytes. In kind it is functional.
For `COC(=O)c1cc2c(cc1Br)C=C[C@H]1[C@@](C)(C(=O)OC)CCC[C@]21C`, the IC50 stood at 800 nM.
Still for that read-out and setting: the value for `COC(=O)c1cc2c(cc1C(=O)OC)[C@@]1(C)CCC[C@](C)(C(=O)N3CCOCC3)C1C=C2` (stereo partly drawn) was 110 nM; that for `COC(=O)c1cc2c(cc1C(=O)OC)[C@@]1(C)CCC[C@](C)(C(=O)O)C1C=C2` (stereo partly drawn) was 110 nM.
On to `COC(=O)[C@@]1(C)CCC[C@]2(C)c3cc(O)c(O)cc3C=CC12` (stereo partly drawn), for which half-maximal inhibition (IC50) was put at 100 nM.
The compound `COC(=O)c1cc2c(cc1C(=O)OC)[C@@]1(C)CCC[C@](C)(C(=O)OC)C1C=C2` (stereo partly drawn) returned an IC50 of 100 nM.
Still for that read-out and setting: as for `COC(=O)c1cc2c(cc1NS(C)(=O)=O)C=C[C@H]1[C@@](C)(C(=O)OC)CCC[C@]21C`, the figure is 100 nM; as for `COC(=O)c1cc2c(cc1OC)[C@@]1(C)CCC[C@](C)(C(=O)OC)[C@@H]1C(=O)C2`, 260 nM.
The same measure, in the same setting: as for `CCCc1c2c(cc(OC)c1C(=O)OC)[C@@]1(C)CCC[C@](C)(C(=O)OC)[C@@H]1C=C2`, the figure is 300 nM.
Regarding `COC(=O)[C@@]1(C)CCC[C@]2(C)c3cc(OC)c(O)cc3CC[C@@H]12`, the IC50 worked out at 1400 nM.
For the compound `COC(=O)Cc1cc2c(cc1C(=O)OC)[C@@]1(C)CCC[C@](C)(C(=O)OC)[C@@H]1C=C2`, the concentration for half-maximal inhibition (IC50) came to 400 nM.
Still for that read-out and setting: the value for `COC(=O)c1cc2c(c(Br)c1C(=O)OC)CCC1[C@@](C)(C(=O)OC)CCC[C@]21C` (stereo partly drawn) was 400 nM; that for `COC(=O)[C@@]1(C)CCC[C@]2(C)c3cc(C(=O)OC(C)C)c(C(=O)OC(C)C)cc3C=CC12` (stereo partly drawn) was 110 nM; that for `CCCc1c2c(cc(C(=O)OC)c1C(=O)OC)[C@@]1(C)CCC[C@](C)(C(=O)OC)C1C=C2` (stereo partly drawn) was 110 nM.
The same measure, in the same setting: as for `COC(=O)[C@@]1(C)CCC[C@]2(C)c3cc(O)c(OC)cc3C=C[C@@H]12`, the figure is 100 nM; as for `C=CCc1c2c(cc(C(=O)OC)c1C(=O)OC)[C@@]1(C)CCC[C@](C)(C(=O)OC)C1CC2` (stereo partly drawn), 200 nM.
In the case of `COC(=O)c1cc2c(c(C(C)=O)c1C(=O)OC)CCC1[C@@](C)(C(=O)OC)CCC[C@]21C` (stereo partly drawn), half-maximal inhibition (IC50) required 110 nM.
`COC(=O)[C@@]1(C)CCC[C@]2(C)c3cc(C(=O)OC(C)(C)C)c(C(=O)OC(C)(C)C)cc3C=CC12` (stereo partly drawn): the IC50 came to 540 nM.
In turn, `COC(=O)c1cc2c(c(C)c1C(=O)OC)C=CC1[C@@](C)(C(=O)OC)CCC[C@]21C` (stereo partly drawn) had an IC50 of 140 nM.
On the same count and under the same terms, the value for `COC(=O)c1cc2c(c(C)c1C(=O)OC)C(C)=CC1[C@@](C)(C(=O)OC)CCC[C@]21C` (stereo partly drawn) was 200 nM.
Still for that read-out and setting: the value for `CCCc1c(C(=O)OC)c(C(=O)OC)cc2c1C(=O)CC1[C@@](C)(C(=O)OC)CCC[C@]21C` (stereo partly drawn) was 800 nM; that for `COC(=O)c1cc2c(cc1OC)[C@@]1(C)CCC[C@](C)(C(=O)OC)[C@@H]1C=C2` was 160 nM.
On the same count and under the same terms, the value for `COc1cc2c(c(C)c1O)C=C[C@H]1[C@@](C)(C(=O)O)CCC[C@]21C` was 100 nM.
`COC(=O)c1cc2c(cc1OC)C=C[C@H]1[C@@](C)(C(=O)OC)CCC[C@]21C` came in with an IC50 of 100 nM.
Take `CCOC(=O)CCCNC(=O)[C@@]1(C)CCC[C@]2(C)c3cc(C(=O)OC)c(C(=O)OC)cc3C=CC12` (stereo partly drawn): the midpoint of inhibition, the IC50, lay at 150 nM.
The same measure, in the same setting: as for `CCCc1c2c(cc(C(=O)OC)c1C(=O)OC)[C@@]1(C)CCC[C@](C)(C(=O)OC)C1CC2` (stereo partly drawn), the figure is 300 nM; as for `COC(=O)[C@@]1(C)CCC[C@]2(C)c3cc(O)c(N)cc3C=C[C@@H]12`, 150 nM; as for `COC(=O)[C@@]1(C)CCC[C@]2(C)c3cc(OC)c(O)cc3C=C[C@@H]12`, 100 nM.
On the same count and under the same terms, the value for `COC(=O)c1cc2c(cc1C(=O)OC)[C@@]1(C)CCC[C@](C)(C(=O)OC)C1CC2=O` (stereo partly drawn) was 1000 nM; that for `COC(=O)C[C@@]1(C)CCC[C@]2(C)c3cc(C(=O)OC)c(C(=O)OC)cc3C=CC12` (stereo partly drawn) was 160 nM.
